Test systems include 786-0; ACHN; CCRF-CEM; COLO 205; EKVX; HOP-62; HOP-92; LOX IMVI; M14; MCF7; MDA-MB-435; Malme-3M; NCI-H226; NCI-H23; OVCAR-3; OVCAR-8; SF-268; TK-10; UACC-62; UO-31.
What all share (assay): NCI tumour cell line growth inhibition, 48 h

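All cell lines were grown in 96-well plates and treated with compound for 48 hours. GI50 is the concentration that inhibits growth by half.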 The source made the active and inactive calls. No stated cut-off is given here; in the data, active = GI50 up to about 1.1 µM and inactive = higher.

The results in this text go back to ChEMBL document CHEMBL1201862, “PubChem BioAssay data set” (2004).

Take `CC(=O)NC1=C(OS(=O)(=O)c2ccc(C)cc2)CN(C)C1=O`: the GI50 is 3.79 µM (inactive) in the assay with 786-0; 3.32 µM (inactive) with ACHN; 1.77 µM (inactive) with CCRF-CEM; 5.75 µM (inactive) in the assay with COLO 205; 4.84 µM (inactive) in the assay with EKVX; 2.88 µM (inactive) in the assay with HOP-62. Besides, the GI50 with HOP-92 is 2.84 µM (inactive); in the assay with LOX IMVI it was 4.6 µM (inactive); in the assay on M14, 5.04 µM (inactive); with MCF7, 2.89 µM (inactive); in the assay on MDA-MB-435 it was 4.26 µM (inactive); in the assay on Malme-3M, 2.26 µM (inactive). Moreover, the GI50 is 8.73 µM (inactive) with NCI-H226; 3.72 µM (inactive) with NCI-H23; 2.74 µM (inactive) with OVCAR-3; 4.22 µM (inactive) in the assay with OVCAR-8; 5.04 µM (inactive) in the assay on SF-268; 1.94 µM (inactive) with TK-10. Also, the GI50 is 6.79 µM (inactive) in the assay with UACC-62 and 3.44 µM (inactive) with UO-31.
Turning to `O=C1C(c2ccc([N+](=O)[O-])cc2)=C(Cl)C(=O)c2c(O)cccc21`, the GI50 in the assay with 786-0 is 15.5 µM (inactive); with ACHN, 18.5 µM (inactive); in the assay with CCRF-CEM, 4.56 µM (inactive); with COLO 205 it was 17.3 µM (inactive); in the assay on EKVX it was 20.5 µM (inactive); in the assay with HOP-62, 34.4 µM (inactive). Moreover, the GI50 was 19 µM (inactive) in the assay with HOP-92; 17.3 µM (inactive) in the assay on LOX IMVI; 21 µM (inactive) in the assay with M14; 18.8 µM (inactive) in the assay with MCF7; 17.7 µM (inactive) in the assay with MDA-MB-435; 19.6 µM (inactive) in the assay on Malme-3M. Also, the GI50 is > 43.2 µM (inactive) with NCI-H226; 18.1 µM (inactive) in the assay with NCI-H23; 17.7 µM (inactive) in the assay on OVCAR-3; 27.5 µM (inactive) in the assay with OVCAR-8; 23.1 µM (inactive) with SF-268; 20.2 µM (inactive) in the assay with TK-10. In addition, the results for the GI50 with UACC-62 and with UO-31 were 19.7 µM (inactive) and 13.5 µM (inactive), respectively.
Consider `ClCCCN(CCCCl)c1ccc(/C=N/c2cccc(Cl)c2)cc1`, for which the GI50 in the assay with 786-0 was 18.3 µM (inactive); with ACHN, 7.26 µM (inactive); in the assay on CCRF-CEM, 16.4 µM (inactive); with COLO 205, 47.6 µM (inactive); with EKVX it was 0.637 µM (active); with HOP-62 it was 18.7 µM (inactive). Further, the GI50 in the assay with HOP-92 was 29.2 µM (inactive); with LOX IMVI, 7.57 µM (inactive); in the assay with M14, 29.3 µM (inactive); in the assay on MCF7 it was 23.5 µM (inactive); in the assay on MDA-MB-435, 28.8 µM (inactive); with Malme-3M, 6.22 µM (inactive). For the same compound, the GI50 with NCI-H226 was 2.03 µM (inactive); in the assay on NCI-H23, 15.5 µM (inactive); with OVCAR-3 it was 19.1 µM (inactive); with OVCAR-8 it was 6.95 µM (inactive); with SF-268, 21.7 µM (inactive); in the assay on TK-10 it was 4.48 µM (inactive). In addition, the results for the GI50 in the assay with UACC-62 and in the assay with UO-31 were 1.49 µM (inactive) and 15.8 µM (inactive), respectively.
On to `COc1cccc(/C=N/NC(=O)CN(C)C)c1O`, for which the GI50 with 786-0, in the assay on ACHN, in the assay on CCRF-CEM, in the assay with COLO 205, in the assay on EKVX and in the assay with HOP-62 was > 100 µM (inactive) throughout. The GI50 in the assay on HOP-92, in the assay on LOX IMVI, in the assay with M14, with MCF7, in the assay with MDA-MB-435 and in the assay with Malme-3M was > 100 µM (inactive) each time. The GI50 was 72.8 µM (inactive) with NCI-H226; > 100 µM (inactive) with NCI-H23; > 100 µM (inactive) in the assay with OVCAR-3; > 100 µM (inactive) with OVCAR-8; > 100 µM (inactive) in the assay on SF-268; > 100 µM (inactive) in the assay with TK-10. Moreover, the GI50 in the assay on UACC-62 and with UO-31 was > 100 µM (inactive) in each case.
Turning to `COc1cc2nncc(SCc3ccc(Cl)c(Cl)c3)c2cc1OC`, the GI50 is 42.8 µM (inactive) in the assay on 786-0; > 48.4 µM (inactive) with ACHN; > 100 µM (inactive) with CCRF-CEM; > 100 µM (inactive) in the assay on COLO 205; > 100 µM (inactive) in the assay with EKVX; 32.3 µM (inactive) in the assay with HOP-62. In addition, the GI50 with HOP-92 is > 45.8 µM (inactive); in the assay with LOX IMVI it was 26.2 µM (inactive); in the assay on M14, > 35.6 µM (inactive); in the assay with MCF7, 89.5 µM (inactive); with MDA-MB-435, > 100 µM (inactive); in the assay with Malme-3M, > 100 µM (inactive). The GI50 in the assay on NCI-H226 is > 100 µM (inactive); in the assay on NCI-H23, > 100 µM (inactive); with OVCAR-3 it was > 100 µM (inactive); with OVCAR-8, > 100 µM (inactive); with SF-268, > 69.5 µM (inactive); in the assay with TK-10, 82.4 µM (inactive). Moreover, the GI50 is 14 µM (inactive) with UACC-62 and > 100 µM (inactive) with UO-31.
`NC(=O)N/N=C1/CCC(O)CC1CC(=O)O` (stereo not given): the GI50 in the assay on 786-0 is > 100 µM (inactive); with ACHN it was > 100 µM (inactive); in the assay with CCRF-CEM it was 36.3 µM (inactive); in the assay on COLO 205, > 100 µM (inactive); in the assay with EKVX, > 100 µM (inactive); in the assay with HOP-62 it was > 100 µM (inactive). Moreover, the GI50 with HOP-92, with LOX IMVI, with M14, in the assay with MCF7, with MDA-MB-435 and with Malme-3M was > 100 µM (inactive) in each case. In addition, the GI50 with NCI-H226, with NCI-H23, in the assay with OVCAR-3, in the assay with OVCAR-8, with SF-268 and with TK-10 was > 100 µM (inactive) in each case. For the same compound, the GI50 with UACC-62 and with UO-31 was > 100 µM (inactive) in each case.
